Assay results: US12653191B2, “Active compound combinations” (Bayer Aktiengesellschaft, priority 2020, dated 2026)
Read-outs that look alike come from different tables or passages of the source.

Columns and labels:
[1] = system: Alternaria alternate; assay: in vitro-Test with fungal microorganisms, Method A (tables A1-A12); format: cell-based, Alternaria alternata; conditions: Alternaria, applied alone, read-out: Efficacy %
How it was run: (§1)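 Readout: extinction at 620 nm, measured at start and again 3-5 days later, giving efficacy versus untreated control (0% = control growth, 100% = no growth). Compounds were evaporated from methanol/emulsifier before adding potato dextrose medium with fungal spores or mycelium; incubation 20° C, 85% RH.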

[2] = system: Cercospora beticola; assay: in vitro-Test with fungal microorganisms, Method A (tables C1-C10); format: cell-based; conditions: Cercospora beticola, read-out: Efficacy %
How it was run: as §1

[3] = system: Botrytis cinerea; assay: in vitro-Test with fungal microorganisms, Method A (tables B1-B14); format: cell-based; conditions: Botrytis cinerea
How it was run: as §1

[4] = system: Cordana musae; assay: in vitro-Test with fungal microorganisms, Method A (tables E1-E8); format: cell-based
How it was run: as §1

[5] = system: Cordana musae; assay: in vitro-Test with fungal microorganisms, Method B (tables E9-E16); format: cell-based; conditions: Neocordana musae, single active, read-out: Efficacy
How it was run: (§2)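 Efficacy, relative to untreated control (0% = growth as in control, 100% = no growth), from photometric growth measurement at 600 nm after 3 to 7 days at 20° C., 85% relative humidity. Compound applied in methanol+emulsifier, solvent evaporated, then spore/mycelium-amended liquid medium added.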

[6] = system: Parastagonospora nodorum; assay: in vitro-Test with fungal microorganisms, Method B (tables H5-H8); format: cell-based; conditions: Parastagonospora nodorum, read-out: Efficacy
Method: (§3) Example: In Vitro-Test with Fungal Microorganisms
(§4) Wells of 96-well microtiter plates are filled with 30 μl of a preparation of test compound or compound combination in methanol+emulsifier alkylaryl-polyglycol-ether. Thereafter, the solvent is evaporated in a hood. At the next step, 200 μl of liquid growth medium is given, that has been amended with an appropriate concentration of spores or mycelium suspension of the test fungus.
With the aid of a photometer, the extinction in all wells is measured at the wavelength of 600 nm.
(§5) The microtiter plates are incubated for 3 to 7 days at 20° C. and 85% relative humidity. After the incubation inhibition of growth is determined photometrically. Efficacy is calculated in relation to the untreated control, 0% efficacy means fungal growth as high as in untreated control while 100% efficacy means no fungal growth is measured.
(§6) The data in tables A1 to A12, B1 to B14, C1 to C10, D1 to D8, E1 to E8, F1 to F11, G1 to G4, H1 to H4 and I1 to I5 were collected according to Method A. The data in tables A13 to A22, B15 to B18, C11 to C20, E9 to E16, F12 to F15, G5 to G15, H5 to H8, I6 to I11 and J1 to J11 were collected according to Method B.

[7] = system: Colletotrichum coccodes; assay: in vitro-Test with fungal microorganisms, Method B (tables J1-J11); format: cell-based; conditions: Colletotrichum coccodes, read-out: Efficacy %; for inhibition of growth at 1 ppm: single active compound at 1 ppm
How it was run: as §2

[8] = system: Cercospora beticola; assay: in vitro-Test with fungal microorganisms, Method B (tables C11-C20); format: cell-based; conditions: Cercospora beticola, single compound, read-out: Efficacy %
How it was run: as §2

[9] = system: Fusarium culmorum; assay: in vitro-Test with fungal microorganisms, Method B (tables G5-G15); format: cell-based; conditions: Fusarium culmorum, read-out: Efficacy
How it was run: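 Steps: solvent evaporation leaves the compound coating the wells; fungus-inoculated liquid growth medium goes on top; absorbance at 600 nm is measured; incubation runs 3 to 7 days at 20° C. with 85% relative humidity. Inhibition is then read photometrically and expressed as efficacy against untreated control.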

[10] = system: Fusarium culmorum; assay: in vitro-Test with fungal microorganisms, Method A (tables G1-G4); format: cell-based; conditions: Fusarium culmorum, alone, read-out: Efficacy
Method: as §3
as §4, with “10” for “30”, “100” for “200”, “potato dextrose” for “growth”, “given into each well,” for “given,”
With the aid of a photometer, the extinction in all wells is measured at the wavelength of 620 nm.
as §5, with “incubated” for “incubated for 3 to 7 days”, “The” for “After the incubation”, “again photometrically 3-5 days after the application.” for “photometrically.”
as §6

[11] = system: Colletotrichum lindemuthianum; assay: in vitro-Test with fungal microorganisms, Method A (tables D1-D8); format: cell-based; conditions: Colletotrichum lindemuthianum, read-out: Efficacy %
How it was run: as §1

[12] = system: Diaporthe citri; assay: in vitro-Test with fungal microorganisms, Method A (tables F1-F11); format: cell-based; conditions: Diaporthe citri, read-out: Efficacy
How it was run: as §1

[13] = system: Ustilago segetum var. avenae; assay: in vitro-Test with fungal microorganisms, Method B (tables I6-I11); format: cell-based; conditions: 1 ppm; read-out: Efficacy %
How it was run: as §2

[14] = system: Alternaria alternata; assay: in vitro-Test with fungal microorganisms, Method B (tables A13-A22); format: cell-based; conditions: Alternaria alternata, single compound, 0.2 ppm; read-out: Efficacy
How it was run: as §2

[15] = system: Ustilago segetum var. avenae; assay: in vitro-Test with fungal microorganisms, Method A (tables I1-I5); format: cell-based; conditions: alone, 0.8 ppm; read-out: Efficacy %
How it was run: as §1

[16] = single active compound at 0.04 ppm

CC(C)(C)C(O)(CCc1ccc(Cl)cc1)Cn1cncn1 (centres unmarked) [(1.021) tebuconazole, tebuconazole] was tested, and the inhibition of growth at 0.008 ppm ([1]; 0.008 ppm) was 13%, the inhibition of growth at 0.04 ppm ([1]; 0.04 ppm) was 19% and the inhibition of growth at 0.2 ppm ([1]; 0.2 ppm) was 26%. It also gave an inhibition of growth at 0.008 ppm ([2]; 0.008 ppm alone) of 12%, an inhibition of growth at 0.04 ppm ([2]; 0.04 ppm alone) of 32% and an inhibition of growth at 0.2 ppm ([2]; 0.2 ppm alone) of 100%. For the same compound, the inhibition of growth at 0.04 ppm ([3]; read-out: Efficacy) was 0%, the inhibition of growth at 0.2 ppm ([3]; read-out: Efficacy) was 37% and the inhibition of growth at 1 ppm ([3]; 1.0 ppm, read-out: Efficacy) was 94%. For the same compound, the inhibition of growth at 0.008 ppm ([3]; alone, 0.008 ppm, read-out: Efficacy %) was 0%, the inhibition of growth at 0.04 ppm ([3]; alone, read-out: Efficacy %) was 0% and the inhibition of growth at 0.2 ppm ([3]; alone, read-out: Efficacy %) was 45%. The inhibition of growth at 0.04 ppm ([4]; Neocordana musae, mixing partner alone, 0.04 ppm, read-out: Efficacy %) was 0%, the inhibition of growth at 0.2 ppm ([4]; Neocordana musae, mixing partner alone, 0.2 ppm, read-out: Efficacy %) was 29% and the Efficacy % ([4]; mixing partner alone, 1.0 ppm) was 99%. The inhibition of growth at 0.04 ppm [5] was 2%, the inhibition of growth at 0.2 ppm ([5]; 0.2 ppm) was 25% and the inhibition of growth at 1 ppm [5] was 71%. For the same compound, the inhibition of growth at 0.008 ppm ([6]; 0.008 ppm) was 0%, the inhibition of growth at 0.04 ppm [6] was 0% and the inhibition of growth at 0.2 ppm ([6]; 0.2 ppm) was 60%. For the same compound, the inhibition of growth at 1 ppm ([6]; 1 ppm) was 100%, the inhibition of growth at 0.04 ppm ([7]; 0.04 ppm) was 0% and the inhibition of growth at 0.2 ppm ([7]; 0.2 ppm) was 4%. For the same compound, the inhibition of growth at 0.008 ppm ([7]; applied alone, 0.008 ppm) was 0%, the inhibition of growth at 0.04 ppm ([7]; applied alone, 0.04 ppm) was 0% and the inhibition of growth at 0.2 ppm ([7]; applied alone, 0.2 ppm) was 0%. For the same compound, the inhibition of growth at 0.008 ppm ([7]; single active compound at 0.008 ppm) was 0%, the inhibition of growth at 0.04 ppm [7, 16] was 7% and the inhibition of growth at 1 ppm [7] was 87%. For the same compound, the inhibition of growth at 0.008 ppm ([8]; 0.008 ppm) was 4%, the inhibition of growth at 0.04 ppm [8] was 1% and the inhibition of growth at 0.2 ppm ([8]; 0.2 ppm) was 62%. For the same compound, the inhibition of growth at 1 ppm ([9]; alone) was 79%, the inhibition of growth at 0.008 ppm ([10]; 0.008 ppm) was 8% and the inhibition of growth at 0.04 ppm ([10]; 0.04 ppm) was 21%. For the same compound, the inhibition of growth at 1 ppm ([10]; 1.0 ppm) was 98%, the inhibition of growth at 0.008 ppm ([11]; mixing partner alone, 0.008 ppm) was 32% and the inhibition of growth at 0.04 ppm ([11]; mixing partner alone, 0.04 ppm) was 0%. For the same compound, the inhibition of growth at 0.2 ppm ([11]; mixing partner alone, 0.2 ppm) was 17%, the inhibition of growth at 1 ppm ([11]; mixing partner alone, 1.0 ppm) was 35% and the inhibition of growth at 0.008 ppm ([11]; single active at 0.008 ppm) was 0%. The inhibition of growth at 0.04 ppm ([11]; single active at 0.04 ppm) was 13%, the inhibition of growth at 0.2 ppm ([11]; single active at 0.2 ppm) was 0% and the inhibition of growth at 1 ppm ([11]; single active at 1.0 ppm) was 4%. It also gave an inhibition of growth at 0.008 ppm ([12]; applied alone, 0.008 ppm) of 28% and an inhibition of growth at 0.2 ppm ([12]; applied alone, 0.2 ppm) of 89%.
Compound O=C1C2CC=CCC2C(=O)N1SC(Cl)(Cl)Cl (centres unmarked) [(5.003) captan, captan] has an inhibition of growth at 20 ppm ([1]; 20 ppm) of 56%, an inhibition of growth at 0.8 ppm ([2]; 0.8 ppm alone) of 0% and an inhibition of growth at 0.8 ppm ([2]; 0.8 ppm) of 0%. The inhibition of growth at 4 ppm ([2]; 4.0 ppm) was 100%, the inhibition of growth at 20 ppm ([2]; 20.0 ppm) was 100% and the inhibition of growth at 0.8 ppm ([3]; read-out: Efficacy) was 0%. It also gave an inhibition of growth at 4 ppm ([3]; 4.0 ppm, read-out: Efficacy) of 0%, an inhibition of growth at 20 ppm ([3]; read-out: Efficacy) of 7% and an inhibition of growth at 0.8 ppm ([3]; alone, read-out: Efficacy %) of 0%. For the same compound, the inhibition of growth at 20 ppm ([3]; alone, read-out: Efficacy %) was 100%, the inhibition of growth at 1 ppm [13] was 28% and the inhibition of growth at 4 ppm ([4]; Neocordana musae, mixing partner alone, read-out: Efficacy %) was 0%. The inhibition of growth at 4 ppm ([4]; Neocordana musae, single substance, read-out: Efficacy %) was 100%, the inhibition of growth at 20 ppm ([4]; Neocordana musae, single substance, 20.0 ppm, read-out: Efficacy %) was 100% and the inhibition of growth at 0.04 ppm [5] was 0%. It also gave an inhibition of growth at 1 ppm [5] of 0%, an inhibition of growth at 5 ppm ([5]; 5 ppm) of 100% and an inhibition of growth at 0.04 ppm [6] of 0%. It also gave an inhibition of growth at 0.2 ppm ([7]; 0.2 ppm) of 0%, an inhibition of growth at 0.04 ppm [7, 16] of 53% and an inhibition of growth at 0.2 ppm ([7]; single active compound at 0.2 ppm) of 0%. It also gave an inhibition of growth at 1 ppm [7] of 0%, an inhibition of growth at 5 ppm ([7]; single active compound at 5 ppm) of 100% and an inhibition of growth at 0.04 ppm [8] of 0%. For the same compound, the inhibition of growth at 0.4 ppm ([8]; 0.4 ppm) was 0%, the inhibition of growth at 5 ppm ([8]; 5 ppm) was 100% and the inhibition of growth at 0.04 ppm ([9]; single active compound, 0.04 ppm) was 0%. The inhibition of growth at 0.2 ppm ([9]; single active compound, 0.2 ppm) was 16%, the inhibition of growth at 1 ppm ([9]; single active compound) was 18% and the inhibition of growth at 5 ppm ([9]; single active compound, 5 ppm) was 100%. It also gave an inhibition of growth at 0.8 ppm ([10]; 0.8 ppm) of 0%, an inhibition of growth at 4 ppm ([10]; 4.0 ppm) of 100% and an inhibition of growth at 20 ppm ([10]; 20.0 ppm) of 100%. For the same compound, the inhibition of growth at 0.2 ppm [14] was 0%, the inhibition of growth at 0.8 ppm [15] was 0% and the inhibition of growth at 0.8 ppm ([11]; mixing partner alone, 0.8 ppm) was 3%. The inhibition of growth at 4 ppm ([11]; mixing partner alone, 4.0 ppm) was 100%, the inhibition of growth at 20 ppm ([11]; mixing partner alone, 20.0 ppm) was 100% and the inhibition of growth at 0.8 ppm ([11]; single active at 0.8 ppm) was 0%. It also gave an inhibition of growth at 4 ppm ([11]; single active at 4.0 ppm) of 100%, an inhibition of growth at 20 ppm ([11]; single active at 20.0 ppm) of 100% and an inhibition of growth at 0.8 ppm ([12]; Table F10, 0.8 ppm alone) of 18%. It also gave an inhibition of growth at 4 ppm ([12]; Table F10, 4.0 ppm alone) of 100%, an inhibition of growth at 20 ppm ([12]; Table F10, 20.0 ppm alone) of 100% and an inhibition of growth at 0.8 ppm ([12]; applied alone, 0.8 ppm) of 9%. The inhibition of growth at 4 ppm ([12]; applied alone, 4.0 ppm) was 99%, the inhibition of growth at 0.8 ppm ([12]; single active, 0.8 ppm) was 24% and the inhibition of growth at 4 ppm ([12]; single active, 4.0 ppm) was 88%.
